Assay results taken from patent US20100159496A1, “EVALUATION METHOD FOR PHOTOSYNTHESIS SAMPLE, EVALUATION SYSTEM FOR PHOTOSYNTHESIS SAMPLE, AND EVALUATION PROGRAM FOR PHOTOSYNTHESIS SAMPLE” (HAMAMATSU PHOTONICS K.K., priority 2006, published 2010).

Test system: green algae
Assay: Delayed luminescence of green algae in different redox states (first/second excitation light, waiting time), integration values
Format: cell-based, Pseudokircheneriella subcapitata
Details: for percentage (% oQ) of the oxidized plastoquinone: DBMIB 322 μg/L (FIG. 43)
Text: In determining the relationship between the waiting time and the temporal variation of delayed luminescence, first, white light of 500 μmol·m−2·s−1 was illuminated for 10 seconds onto the measurement sample as the first excitation light for saturating photosynthetic electron transport (first illumination condition). Thereafter, a step of not illuminating light onto the measurement sample (referred to hereinafter as “waiting”) was provided and then red light of 50 μmol·m−2·s−1 was illuminated for 2 seconds as the second excitation light. The second excitation light can make delayed luminescence be emitted while hardly changing the redox state of the photosynthetic sample. Such a process is performed repeatedly with the waiting being changed to 0, 2, 10, 30, and 60 seconds. In addition, measurement is also made for a case where the illumination of the first excitation light and waiting are not executed and just the illumination of the second excitation light is performed, that is, for the case where the photosynthetic electron transport is not saturated.
In the following, a case of computing an integration value for each of an integration range (measurement time period) of 0.1 to 0.5 seconds of time after excitation, an integration range of 0.6 to 10 seconds after excitation, and an integration range of 10.1 seconds to 50 seconds after excitation shall be described. Setting of the integration ranges is not restricted to the above. The number of integration ranges may any number as long as it is no less than 1. In a case where a plurality of integration ranges are set up, the respective integration ranges may be made equal or not equal in time width. Furthermore, the integration ranges may not only be mutually set apart by a predetermined time as in the present embodiment but integration ranges may be set so as to be adjacent each other (for example, an integration range of 0.1 to 0.5 seconds of time after excitation and an integration range of 0.5 seconds to 10 seconds of time after excitation may be set up) and integration ranges may be set so as to overlap with each other (for example, an integration range of 0.1 to 0.5 seconds of time after excitation and an integration range of 0.4 seconds to 10 seconds of time after excitation may be set up).
In each graph of FIG. 29, the abscissa expresses the measurement condition and the ordinate expresses the integration value (counts) of the delayed luminescence intensity. In the following, the integration value in the integration range of 0.1 to 0.5 seconds of time after excitation, the integration value in the integration range of 0.6 to 10 seconds after excitation, and the integration value in the integration range of 10.1 seconds to 50 seconds after excitation shall be referred to respectively as integration value 1, integration value 2, and integration value 3. FIGS. 29A, 29B, and 29C are graphs respectively of the integration value 1, integration value 2, and integration value 3.
First, a method for computing an evaluation value for evaluating the electron accumulation state of the PSII of the photosynthetic sample shall be described. As one such type of evaluation value, there is, for example, a PSII electron accumulation change (en), which indicates how the electron accumulation in the PSII has changed. This value ell can be determined as: (integration value 1 of the evaluation sample)/(integration value 1 of the standard sample)×100. The PSII electron accumulation change (eII) can be computed for the respective conditions of non-saturation, 0-second waiting time, 10-second waiting time, and 60-second waiting time.
As mentioned above, the transient increase of the integration value 1 in the 0-second waiting time reflects increase of the electron accumulation in the PSII due to the takeout of electrons from the PSII becoming rate-limiting. […]

[1] = all conditions (non-saturation, 0-, 10-, 60-second waiting time), DCMU 12 ug/L, Ant-A 0.55 mg/L

| Structure (SMILES) | integration value 1 (0.1 to 0.5 seconds after excitation) (10-second waiting time, Ant-A 0.55 mg/L) | cyclic electron transport (cI) from the PSI (10-second waiting time, Ant-A 0.55 mg/L (FIG. 44)) | integration value 2 (0.6 to 10 seconds after excitation) compared with standard sample [1] | integration value 3 (10.1 to 50 seconds after excitation) compared with standard sample [1] | PSI electron accumulation change (eI) (non-saturation case, Ant-A 0.55 mg/L, integration value 3 of evaluation sample/standard sample×100 (FIG. 44)) | integration value 1 (0.1 to 0.5 seconds after excitation) compared with standard sample (non-saturation, 0-second and 60-second waiting time, Ant-A 0.55 mg/L) | integration value 2 (0.6 to 10 seconds after excitation) compared with standard sample (0-second waiting time, DBMIB 322 μg/L) | percentage (% oQ) of the oxidized plastoquinone (10-second waiting time) | increase (increment) of integration value 3 at the 10-second waiting time compared with standard sample (10-second waiting time, DBMIB 322 μg/L, Ant-A 0.55 mg/L) | percentage (% oQ) of the oxidized plastoquinone (60-second waiting time) | change (vQ) of redox reaction magnitude sQ (DBMIB 322 μg/L, sQ of evaluation sample/sQ of standard sample (FIG. 43)) | integration value 1 (0.1 to 0.5 seconds after excitation) compared with standard sample (all conditions, DBMIB 322 μg/L) | integration value 3 (10.1 to 50 seconds after excitation) compared with standard sample (non-saturation, 0-second and 60-second waiting time, DBMIB 322 μg/L) | integration value 2 (0.6 to 10 seconds after excitation) compared with standard sample (non-saturation, 10-second and 60-second waiting time, DBMIB 322 μg/L) | integration value 1 (0.1 to 0.5 seconds after excitation) compared with standard sample (0-second waiting time, DCMU 12 ug/L) | PSII electron takeout change (vII) (DCMU 12 ug/L, tII of evaluation sample/tII of standard sample×100 (FIG. 42)) | PSII electron accumulation change (eII) (non-saturation state, DCMU 12 ug/L, integration value 1 of evaluation sample/standard sample×100 (FIG. 42)) | integration value 1 (0.1 to 0.5 seconds after excitation) compared with standard sample (non-saturation, 10-second and 60-second waiting time, DCMU 12 ug/L) |
| --- | --- | --- | --- | --- | --- | --- | --- | --- | --- | --- | --- | --- | --- | --- | --- | --- | --- | --- |
| CCCCCC[C@H]1C(=O)O[C@H](C)[C@H](NC(=O)c2cccc(NC=O)c2O)C(=O)O[C@@H](C)[C@@H]1OC(=O)CC(C)C [Ant-A, Antimycin A] | increased in the same manner as in the 0-second waiting time case | −12 | less than those of the standard sample | less than those of the standard sample | 89 | a large difference was not seen |  |  |  |  |  |  |  |  |  |  |  |  |
| CC1=C(Br)C(=O)C(C(C)C)=C(Br)C1=O [DBMIB, 2,5-dibromo-6-isopropyl-3-methyl-1,4-benzoquinone] |  |  |  |  |  |  | a large difference is not seen | 4 | lower than that of the standard sample | 22 | 30 | greater than those of the standard sample | a large difference was not seen | lower than that of the standard sample |  |  |  |  |
| CN(C)C(=O)Nc1ccc(Cl)c(Cl)c1 [DCMU, 3-(3,4-dichlorophenyl)-1,1-dimethyl-urea] |  |  | less than those of the standard sample | less than those of the standard sample |  |  |  |  |  |  |  |  |  |  | a significant difference was not seen | negative | 188 | nearly twice the values of the standard sample |
